Biological target: T1, CB1 receptor (Mus musculus, UniProt P47746)
T1 construct: gene Cnr1; pcDNA3 CB1 (Addgene plasmid # 13391) overexpressed in COS7 cells
Experiment: Fluo-8 Ca2+ imaging in CB1-transfected COS7 cells; concentration-response, blocked by AM251
Format: cell-based

T1 sequence (P47746 whole entry): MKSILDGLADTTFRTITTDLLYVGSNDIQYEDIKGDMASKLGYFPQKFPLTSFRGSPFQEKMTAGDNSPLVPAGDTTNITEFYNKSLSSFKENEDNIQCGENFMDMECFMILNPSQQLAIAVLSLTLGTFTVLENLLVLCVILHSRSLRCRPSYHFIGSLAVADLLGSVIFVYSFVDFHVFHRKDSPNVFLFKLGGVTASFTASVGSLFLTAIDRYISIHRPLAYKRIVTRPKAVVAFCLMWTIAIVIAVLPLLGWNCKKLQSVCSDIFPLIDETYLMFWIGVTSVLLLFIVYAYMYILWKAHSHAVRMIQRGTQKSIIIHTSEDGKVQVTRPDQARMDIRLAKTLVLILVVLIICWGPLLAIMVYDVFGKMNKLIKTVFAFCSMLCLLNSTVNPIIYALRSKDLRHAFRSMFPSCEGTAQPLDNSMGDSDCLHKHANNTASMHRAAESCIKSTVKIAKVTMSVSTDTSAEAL

SMILES	EC50 [nM]
CCCCC/C=C\C/C=C\C/C=C\C/C=C\CCCC(=O)OC[C@@H](O)CO [1-AG]	1900
CCCCC/C=C\C/C=C\C/C=C\C/C=C\CCCC(=O)OC(CO)CO [2-AG]	600

Reference: paper PMC5316530, “The Ratio of 2-AG to Its Isomer 1-AG as an Intrinsic Fine Tuning Mechanism of CB1 Receptor Activation” (Frontiers in Cellular Neuroscience, 2017)
